Assay results reported in article PMC7073886, “Structure–Bioactivity Relationships of Lapatinib Derived Analogs against Schistosoma mansoni” (ACS Medicinal Chemistry Letters, 2020).
In brackets after ≈: the same amount, converted by molar mass. Read-outs that look alike come from different tables or passages of the source.

Tests used:
HepG2 cells = assay: Drug toxicity to HepG2 cells (MTT); type: cell-based; conditions: for HepG2 TC50: HepG2 cells, 48 hours incubation, MTT
adult S. mansoni = assay: Phenotypic screen of adult S. mansoni worms, severity scores and descriptors; type: cell-based, Schistosoma mansoni; conditions: for Descriptors (10 µM) 1 h / Severity Scores (10 μM) 1 h / Descriptors (10 µM) 5 h / Severity Scores (10 μM) 5 h / Descriptors (10 µM) 24 h / Severity Scores (10 μM) 24 h / Descriptors (10 µM) 48 h / Severity Scores (10 μM) 48 h: adult S. mansoni; for Descriptors (10 µM) 1 h / Descriptors (10 µM) 5 h / Descriptors (10 µM) 24 h / Descriptors (10 µM) 48 h: phenotypic descriptors; for Severity Scores (10 μM) 1 h / Severity Scores (10 μM) 5 h / Severity Scores (10 μM) 24 h / Severity Scores (10 μM) 48 h: scale 0 (no activity) to 4 (maximal activity); for bioactivity against adult S. mansoni: adult schistosomes; for Severity Scores (10 μM) 1 h / Severity Scores (10 μM) 5 h / Severity Scores (10 μM) 24 h / Severity Scores (10 μM) 48 h / bioactivity against adult S. mansoni: 10 μM
Summary of the method: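 Adult S. mansoni (NMRI isolate, ≥42 days old) were co-incubated with compounds and changes in motility, density, shape and adherence recorded visually over time and concentration. Descriptors converted to severity scores from 0 (no activity) to 4 (maximal).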

[1] = Human plasma protein binding (equilibrium dialysis); type: in vitro ADME; conditions: for human PPB (plasma protein binding): 10 µM, 37 °C; for fraction unbound at 10 µM: pH 7.4, 37 °C, read-out: human PPB (plasma protein binding) (converted)
Rat hepatocyte Clint = type: in vitro ADME; conditions: rat hepatocytes, intrinsic clearance; for hepatocyte CLint: read-out: RH CLint
[2] = Log D7.4 shake-flask octanol-water; type: physicochemical; conditions: pH 7.4
[3] = Human liver microsomal Clint; type: in vitro ADME; conditions: human liver microsomes, intrinsic clearance; for microsomal CLint: read-out: HLM Clint
[4] = Aqueous pH 7.4 solubility; type: physicochemical; conditions: phosphate buffer pH 7.4, 25 °C, 20-24 h, read-out: aq sol (aqueous solubility)
[5] = aqueous buffer, thermodynamic from solid

Row | human PPB (plasma protein binding) [1] [%] | RH CLint (Rat hepatocyte Clint) [µL/min/10^6 cells] | LogD 7.4 [2] | HLM Clint [3] [μL/min/mg protein] | solubility [4] [µM] | SMILES | HepG2 TC50 (HepG2 cells) [µM] | Descriptors (10 µM) 1 h (adult S. mansoni) | Severity Scores (10 μM) 1 h (adult S. mansoni) | Descriptors (10 µM) 5 h (adult S. mansoni) | Severity Scores (10 μM) 5 h (adult S. mansoni) | Descriptors (10 µM) 24 h (adult S. mansoni) | Severity Scores (10 μM) 24 h (adult S. mansoni) | Descriptors (10 µM) 48 h (adult S. mansoni) | Severity Scores (10 μM) 48 h (adult S. mansoni) | also measured
1 | 74 | 72 | 2.7 | 70 | 38 (≈ 17.8 µg/mL) | O=S(=O)(c1ccc(-c2ccc3nccc(NCC4CCOCC4)c3c2)cc1)N1CCOCC1 [S3g] | 32 | none | 0 | none | 0 | none | 0 | none | 0 | –
2 | 61 | 19 | 2.2 | 87 | 910 (≈ 375 µg/mL) | CN1CCCN(c2ncc(-c3ccc4nccc(Nc5ccncn5)c4c3)cn2)CC1 [S3j] | > 37 | none | 0 | none | 0 | none | 0 | – | – | –
3 | – | – | – | – | – | Cc1cnc(Nc2ccnc3cc(-c4cnc(N5CCN(C)CC5)nc4)ccc23)cn1 [5a] | – | – | 1 | – | 4 | – | 4 | – | 4 | increase in toxicity against HepG2 cells compared with 3 (HepG2 cells; relative to 3): greater than 1.9 fold; bioactivity against adult S. mansoni (adult S. mansoni): severe phenotypic response after just 5 h; fraction unbound at 10 µM [1]: 0.07; hepatocyte CLint (Rat hepatocyte Clint): 150 µL/min/1e6 cells; logD [2]: 3.6; microsomal CLint [3]: 240 µL/min/mg; solubility [4, 5]: 13 µM (≈ 5.36 µg/mL)
4 | 82 | 100 | 2.8 | 110 | 200 (≈ 96.3 µg/mL) | O=S(=O)(c1ccc(-c2ccc3nccc(NCCC4CCOCC4)c3c2)cc1)N1CCOCC1 [S3h] | 21 | none | 0 | none | 0 | none | 0 | none | 0 | –
5 | 81 | 12 | 2.5 | 48 | 990 (≈ 408 µg/mL) | CN1CCCN(c2ncc(-c3ccc4nccc(Nc5cnccn5)c4c3)cn2)CC1 [S3i] | > 37 | none | 0 | none | 0 | none | 0 | – | – | –
6 | – | – | – | – | – | O=S(=O)(c1ccc(-c2ccc3nccc(Nc4ncccn4)c3c2)cc1)N1CCOCC1 [S3b] | > 34 | S, on sides | 2 | S, on sides | 2 | – | 3 | – | 3 | bioactivity against adult S. mansoni (adult S. mansoni): moderate activity after 1 h; fraction unbound at 10 µM [1]: 0.01; hepatocyte CLint (Rat hepatocyte Clint): 85 µL/min/1e6 cells; logD [2]: 3.7; microsomal CLint [3]: 270 µL/min/mg; solubility [4, 5]: 34 µM (≈ 15.2 µg/mL)
7 | 72 | 30 | 2.4 | 43 | 140 (≈ 65.5 µg/mL) | O=S(=O)(c1ccc(-c2ccc3nccc(N[C@@H]4CCCC[C@H]4O)c3c2)cc1)N1CCOCC1 (relative stereo) [S3d] | 32 | none | 0 | none | 0 | none | 0 | none | 0 | –
8 | 96 | 28 | 3.1 | 44 | 0.06 (≈ 0.0278 µg/mL) | CS(=O)(=O)N1CCN(c2ncc(-c3ccc4c(Nc5cnccn5)ccnc4c3)cn2)CC1 [S2a] | > 33 | none | 0 | none | 0 | none | 0 | none | 0 | –
9 | 70 | 20 | 2.3 | 59 | 7 (≈ 3.17 µg/mL) | O=S(=O)(c1ccc(-c2ccc3nccc(NC4CCOCC4)c3c2)cc1)N1CCOCC1 [S3f] | 16 | – | 1 | – | 1 | – | 1 | – | 1 | –
10 | 96 | 93 | 3.7 | > 300 | 0.7 (≈ 0.27 µg/mL) | c1cnc(Nc2ccnc3cc(-c4cnc(N5CCOCC5)nc4)ccc23)cn1 [S2d] | 39 | Shrunk, S | 2 | – | 1 | none | 0 | none | 0 | –
